Measurements as given in publication PMC10657444, “Design and evaluation of tadpole-like conformational antimicrobial peptides” (Communications Biology, 2023).
Converted amounts (≈) assume the structure as drawn. Non-standard residues stand in square brackets, D forms with d. Residues, ends and D or L forms follow the SMILES beside them.

Legend:
MRSA 3393 = type: cell-based, Staphylococcus aureus; conditions: 3393
Text: (§1) Bacteria were cultivated in Luria-Bertani (LB) broth.

MRSA ATCC 43300 = type: cell-based, Staphylococcus aureus; conditions: ATCC 43300
Text: as §1

MRSA USA 300 [1] = type: cell-based, Staphylococcus aureus
Text: as §1

E. coli ATCC 25922 = type: cell-based, Escherichia coli
Text: as §1

MRSA USA 300 [2] = experiment: microbe, parasite or virus in culture; type: cell-based, Staphylococcus aureus
Method: (§2) MRSA USA 300 and K. pneumoniae ATCC 700603 were employed to assess the development of resistance. From inoculated microtiter panels, an aliquot of the well with the highest concentration permitting growth was taken and back diluted in fresh media to a turbidity of a 0.5 McFarland standard. This suspension was then further diluted and used to inoculate a fresh MIC panel resulting in a final concentration of 5 × 10^6 CFU/mL. Panels were incubated according to CLSI guidelines (M07, 11th edition, 2018), MICs were recorded and the next inoculum was prepared from the well containing the highest concentration of drug that allowed growth in identical fashion as described above.

[3] = tested on: K. pneumoniae ATCC 700603; experiment: microbe, parasite or virus in culture; type: cell-based, Klebsiella pneumoniae
Method: as §2

MRSA USA 300 [4] = experiment: Scanning electron microscopy; type: cell-based, Staphylococcus aureus; conditions: 2 × MIC, 60 min
Method: (§3) Mid-log phase bacteria (MRSA USA 300 and K. pneumoniae ATCC 700603) grown in LB broth were adjusted to a density of 5 × 10^6 CFU/mL. […] All samples were centrifuged at 8000 rpm for 5 min, washed and then resuspended in PBS. Bacterial cells were fixed with 2.5% glutaraldehyde, and then incubated at 37°C on a glass slide for 20 min. Samples were dehydrated by passing through gradient ethanol (10%, 30%, 50%, 70%, 90%, and 100%) for 5 min at each concentration. Slides were dried with an automatic critical point drying instrument (Leica EM CPD300), and a small amount of gold was sputtered onto the samples using a sputter coater system to avoid charging in the microscope. Finally, the bacteria were visualized under a field-emission scanning electron microscopy (FESEM) device (Sirion 200).

[5] = tested on: K. pneumoniae ATCC 700603; experiment: Scanning electron microscopy; type: cell-based, Klebsiella pneumoniae; conditions: 2 × MIC, 60 min
Method: as §3

[6] = tested on: K. pneumoniae ATCC 700603; experiment: Transmission electron microscopy; type: cell-based, Klebsiella pneumoniae; conditions: 2 × MIC, 60 min
Method: The processing method of the samples for transmission electron microscopy (TEM) was the same as the treatment for SEM. The samples were then prefixed with 2.5% glutaraldehyde at 4°C overnight, post-fixed with osmium tetroxide for 70 min, and washed twice with PBS (pH 7.4). Subsequently, the samples were dehydrated for 10 min in a graded ethanol series (30, 50, 70, 90, and 100%) followed by 10 min in a mixture of absolute ethanol and acetone (1:1, v/v) and 10 min in absolute acetone. The specimens were transferred to a mixture of absolute acetone and epoxy resin (1:1, v/v) for 30 min and then to pure epoxy resin overnight at a constant temperature. Finally, the samples were sectioned using an ultramicrotome, stained with uranyl acetate and lead citrate, and then observed by TEM (Hitachi H-7650, Japan).

In the case of `CC[C@@H](C)[C@@H](NC(=O)[C@@H](Cc1ccccc1)NC(=O)[C@@H](Cc1ccccc1)NC(=O)[C@@H](Cc1ccccc1)NC(=O)[C@H](N)Cc1ccccc1)C(=O)N[C@H](CCCNC(=N)N)C(=O)N[C@H](CCCNC(=N)N)C(=O)N[C@H](CC(C)C)C(=O)N[C@H](Cc1ccccc1)C(=O)N[C@H](CCCNC(=N)N)C(N)=O` [RI-HT2] (H-[dF][dF][dF][dF][dI][dR][dR][dL][dF][dR]-NH2; N-terminus assumed), the “MIC Gram+ MRSA 3393” value (MRSA 3393) is reported as 3.13 µM (≈ 4.53 µg/mL), the “MIC Gram+ MRSA ATCC 43300” value (MRSA ATCC 43300) is reported as 3.13 µM (≈ 4.53 µg/mL) and the “MIC Gram+ MRSA USA 300” value (MRSA USA 300 [1]) is reported as 3.13 µM (≈ 4.53 µg/mL). For the same compound, the “MIC Gram- E. coli ATCC 25922” value (E. coli ATCC 25922) was 3.13 µM (≈ 4.53 µg/mL), the “Concentration (MIC in drug resistance assay)” value (from here on “Concentration”) (MRSA USA 300 [2]; MRSA USA 300, day 0) was 2 µg/mL and the “Concentration” value (MRSA USA 300 [2]; MRSA USA 300, day 1) was 2 µg/mL. The “Concentration” value (MRSA USA 300 [2]; MRSA USA 300, day 2) was 2 µg/mL, the “Concentration” value (MRSA USA 300 [2]; MRSA USA 300, day 3) was 2 µg/mL and the “Concentration” value (MRSA USA 300 [2]; MRSA USA 300, day 4) was 4 µg/mL. The “Concentration” value (MRSA USA 300 [2]; MRSA USA 300, day 5) was 2 µg/mL, the “Concentration” value (MRSA USA 300 [2]; MRSA USA 300, day 6) was 2 µg/mL and the “Concentration” value (MRSA USA 300 [2]; MRSA USA 300, day 7) was 4 µg/mL. The “Concentration” value (MRSA USA 300 [2]; MRSA USA 300, day 8) was 4 µg/mL, the “Concentration” value (MRSA USA 300 [2]; MRSA USA 300, day 9) was 8 µg/mL and the “Concentration” value (MRSA USA 300 [2]; MRSA USA 300, day 10) was 4 µg/mL. For the same compound, the “Concentration” value (MRSA USA 300 [2]; MRSA USA 300, day 11) was 4 µg/mL, the “Concentration” value (MRSA USA 300 [2]; MRSA USA 300, day 12) was 4 µg/mL and the “Concentration” value (MRSA USA 300 [2]; MRSA USA 300, day 13) was 4 µg/mL. For the same compound, the “Concentration” value (MRSA USA 300 [2]; MRSA USA 300, day 14) was 4 µg/mL, the “Concentration” value (MRSA USA 300 [2]; MRSA USA 300, day 15) was 8 µg/mL and the “Concentration” value (MRSA USA 300 [2]; MRSA USA 300, day 16) was 4 µg/mL. For the same compound, the “Concentration” value (MRSA USA 300 [2]; MRSA USA 300, day 17) was 4 µg/mL, the “Concentration” value (MRSA USA 300 [2]; MRSA USA 300, day 18) was 8 µg/mL and the “Concentration” value (MRSA USA 300 [2]; MRSA USA 300, day 19) was 8 µg/mL. For the same compound, the “Concentration” value (MRSA USA 300 [2]; MRSA USA 300, day 20) was 8 µg/mL, the “Concentration” value (MRSA USA 300 [2]; MRSA USA 300, day 21) was 4 µg/mL and the “Concentration” value (MRSA USA 300 [2]; MRSA USA 300, day 22) was 8 µg/mL. For the same compound, the “Concentration” value (MRSA USA 300 [2]; MRSA USA 300, day 23) was 8 µg/mL, the “Concentration” value (MRSA USA 300 [2]; MRSA USA 300, day 24) was 4 µg/mL and the “Concentration” value (MRSA USA 300 [2]; MRSA USA 300, day 25) was 8 µg/mL. For the same compound, the “Concentration” value (MRSA USA 300 [2]; MRSA USA 300, day 26) was 4 µg/mL, the “Concentration” value (MRSA USA 300 [2]; MRSA USA 300, day 27) was 8 µg/mL and the “Concentration” value (MRSA USA 300 [2]; MRSA USA 300, day 28) was 8 µg/mL. The “Concentration” value (MRSA USA 300 [2]; MRSA USA 300, day 29) was 8 µg/mL, the “Concentration” value (MRSA USA 300 [2]; MRSA USA 300, day 30) was 8 µg/mL and the “Concentration” value (MRSA USA 300 [2]; MRSA USA 300, day 31) was 8 µg/mL. The “Concentration” value (MRSA USA 300 [2]; MRSA USA 300, day 32) was 4 µg/mL, the “Concentration” value (MRSA USA 300 [2]; MRSA USA 300, day 33) was 8 µg/mL and the “Concentration” value (MRSA USA 300 [2]; MRSA USA 300, day 34) was 8 µg/mL. The “Concentration” value (MRSA USA 300 [2]; MRSA USA 300, day 35) was 8 µg/mL, the “Concentration” value (MRSA USA 300 [2]; MRSA USA 300, day 36) was 8 µg/mL and the “Concentration” value (MRSA USA 300 [2]; MRSA USA 300, day 37) was 8 µg/mL. For the same compound, the “Concentration” value (MRSA USA 300 [2]; MRSA USA 300, day 38) was 8 µg/mL, the “Concentration” value (MRSA USA 300 [2]; MRSA USA 300, day 39) was 8 µg/mL and the “Concentration” value (MRSA USA 300 [2]; MRSA USA 300, day 40) was 4 µg/mL. For the same compound, the “increase in MIC after 40 passages” value (MRSA USA 300 [2]; serial passage at sub-MIC) was “four-fold”, the “Concentration” value ([3]; K. pneumoniae ATCC 700603, day 0) was 6.25 µg/mL and the “Concentration” value ([3]; K. pneumoniae ATCC 700603, day 1) was 6.25 µg/mL. For the same compound, the “Concentration” value ([3]; K. pneumoniae ATCC 700603, day 2) was 6.25 µg/mL, the “Concentration” value ([3]; K. pneumoniae ATCC 700603, day 3) was 6.25 µg/mL and the “Concentration” value ([3]; K. pneumoniae ATCC 700603, day 4) was 12.5 µg/mL. The “Concentration” value ([3]; K. pneumoniae ATCC 700603, day 5) was 6.25 µg/mL, the “Concentration” value ([3]; K. pneumoniae ATCC 700603, day 6) was 6.25 µg/mL and the “Concentration” value ([3]; K. pneumoniae ATCC 700603, day 7) was 12.5 µg/mL. For the same compound, the “Concentration” value ([3]; K. pneumoniae ATCC 700603, day 8) was 25 µg/mL, the “Concentration” value ([3]; K. pneumoniae ATCC 700603, day 9) was 12.5 µg/mL and the “Concentration” value ([3]; K. pneumoniae ATCC 700603, day 10) was 12.5 µg/mL. For the same compound, the “Concentration” value ([3]; K. pneumoniae ATCC 700603, day 11) was 12.5 µg/mL, the “Concentration” value ([3]; K. pneumoniae ATCC 700603, day 12) was 25 µg/mL and the “Concentration” value ([3]; K. pneumoniae ATCC 700603, day 13) was 12.5 µg/mL. The “Concentration” value ([3]; K. pneumoniae ATCC 700603, day 14) was 25 µg/mL, the “Concentration” value ([3]; K. pneumoniae ATCC 700603, day 15) was 25 µg/mL and the “Concentration” value ([3]; K. pneumoniae ATCC 700603, day 16) was 12.5 µg/mL. The “Concentration” value ([3]; K. pneumoniae ATCC 700603, day 17) was 25 µg/mL, the “Concentration” value ([3]; K. pneumoniae ATCC 700603, day 18) was 25 µg/mL and the “Concentration” value ([3]; K. pneumoniae ATCC 700603, day 19) was 25 µg/mL. The “Concentration” value ([3]; K. pneumoniae ATCC 700603, day 20) was 25 µg/mL, the “Concentration” value ([3]; K. pneumoniae ATCC 700603, day 21) was 25 µg/mL and the “Concentration” value ([3]; K. pneumoniae ATCC 700603, day 22) was 25 µg/mL. For the same compound, the “Concentration” value ([3]; K. pneumoniae ATCC 700603, day 23) was 25 µg/mL, the “Concentration” value ([3]; K. pneumoniae ATCC 700603, day 24) was 25 µg/mL and the “Concentration” value ([3]; K. pneumoniae ATCC 700603, day 25) was 25 µg/mL. The “Concentration” value ([3]; K. pneumoniae ATCC 700603, day 26) was 12.5 µg/mL, the “Concentration” value ([3]; K. pneumoniae ATCC 700603, day 27) was 25 µg/mL and the “Concentration” value ([3]; K. pneumoniae ATCC 700603, day 28) was 25 µg/mL. For the same compound, the “Concentration” value ([3]; K. pneumoniae ATCC 700603, day 29) was 25 µg/mL, the “Concentration” value ([3]; K. pneumoniae ATCC 700603, day 30) was 25 µg/mL and the “Concentration” value ([3]; K. pneumoniae ATCC 700603, day 31) was 25 µg/mL. For the same compound, the “Concentration” value ([3]; K. pneumoniae ATCC 700603, day 32) was 12.5 µg/mL, the “Concentration” value ([3]; K. pneumoniae ATCC 700603, day 33) was 25 µg/mL and the “Concentration” value ([3]; K. pneumoniae ATCC 700603, day 34) was 12.5 µg/mL. For the same compound, the “Concentration” value ([3]; K. pneumoniae ATCC 700603, day 35) was 25 µg/mL, the “Concentration” value ([3]; K. pneumoniae ATCC 700603, day 36) was 25 µg/mL and the “Concentration” value ([3]; K. pneumoniae ATCC 700603, day 37) was 12.5 µg/mL. The “Concentration” value ([3]; K. pneumoniae ATCC 700603, day 38) was 25 µg/mL, the “Concentration” value ([3]; K. pneumoniae ATCC 700603, day 39) was 25 µg/mL and the “Concentration” value ([3]; K. pneumoniae ATCC 700603, day 40) was 12.5 µg/mL. The “increase in MIC after 40 passages” value ([3]; serial passage at sub-MIC) was “four-fold”, the “cell surface morphology by SEM (in words)” value (MRSA USA 300 [4]) was “rough, shrunken, wrinkled and partially damaged” and the “cell surface morphology by SEM (in words)” value [5] was “rough, shrunken, wrinkled and partially damaged”. The “membrane and intracellular structure by TEM (in words)” value [6] was “cytoplasmic membranes became blurred and separated”.
